This is an account of results in patent publication US8372991B2, “Trisubstituted thiophenes that modulate intracellular calcium” (Calcimedica, Inc., priority 2008, dated 2013).

The subject of one assay is JR251 or RBL cells. As to the kind of experiment: Store-operated calcium entry IC50 in either JR251 or RBL cells. The format is cell-based. The procedure:
The day prior to performing the assay Orai1/STIM1 stable cells were plated in 50 μL of complete medium at 90-95% confluence in a 384 well plate. Cells were grown at 37° C./6% CO2 overnight. On the day of the assay, 1.5 μM fluo-4-AM (Invitrogen) in complete medium was added to the cells, which were then incubated for 1 hour at RT. Cells were washed once in Ca^2+-free HBSS (Hank's buffered saline solution) and 35 μl of Ca^2+-free HBSS was added to each well. Test compounds were added to wells in a 10 μL Ca^2+-free HBSS solution, prepared at 4.5× the desired final concentration, and incubated for 30 minutes at RT. The initial baseline fluorescence signal was then measured with a FLIPR^384 (Molecular Devices) plate reader. Calcium entry was initiated by adding 5 μl of 10× CaCl2 (10 mM) in HBSS, and changes in cellular fluorescence were measured with the FLIPR^384 plate reader. In each well, the magnitude of the fluorescence signal as a result of calcium entry into the cell was determined by calculating the difference between the peak fluorescence signal measured after calcium addition and the initial baseline fluorescence signal (designated Peak-Basal). IC50 values were typically calculated as the concentration that inhibited 50% of the Peak-Basal signal (Table A).
(§1) The day prior to performing the assay, RBL-2H3 cells are plated in 50 μL of complete medium in a 384 well plate. Cells are grown at 37° C./6% CO2 overnight and grow to 50-60% confluence by the next day. On the assay day, 1.5 μM Fluo-4-AM dye (Invitrogen) in complete medium is added and incubated for 1 hour at RT. Cells are washed twice in Ca^2+-free HBSS buffer and 35 μL Ca^2+-free HBSS buffer is added to each well. 10 μL of a test compound prepared in a Ca^2+-free HBSS solution at 4.5× of the desired concentration is added to a well and incubated for 5 minutes at RT. 10 μL of thapsigargin prepared in a Ca^2+-free HBSS solution at 5.5× of the desired concentration (5.5 uM) is added to each well and incubated for an additional 25 minutes. The initial baseline fluorescence signal is measured with a FLIPR^384 (Molecular Devices) plate reader. 5 μL of 12× calcium in HBSS (12 mM) is added and changes in cellular fluorescence are measured with the FLIPR^384 plate reader. In each well, the change in the fluorescent signal as a function of time due to calcium entry into the cell is determined by calculating the difference between the fluorescent signal measured 7 seconds after calcium addition and the initial baseline fluorescence signal at time zero (t=0). This parameter is designated Upslope. The IC50 value is calculated as the concentration at which 50% of the Upslope is inhibited.

The subject of another assay is RBL-2H3 cells. The assay is described as follows: Fluorescence-based assay of store-operated calcium entry in RBL-2H3 cells. The format is cell-based. To be noted: Rattus norvegicus, thapsigargin, 50% inhibition of Upslope. The procedure: B. Fluorescence-Based Assay of Store-Operated Calcium Entry in RBL-2H3 Cells.
RBL-2H3 cells were obtained from ATCC and maintained in complete medium with 10% FBS at 37° C./6% CO2.
as §1

Structures are written as SMILES.

For orientation: IC50 means the concentration that gives 50% inhibition. Regarding `O=C(Nc1scc(-c2ccc3ccccc3c2)c1C(=O)O)c1cc2ccccc2o1` [2-(benzofuran-2-carboxamido)-4-(naphthalen-2-yl)thiophene-3-carboxylic acid], the IC50 in the assay with JR251 or RBL cells was < 10 µM.
Same read-out and setting: for `O=C(Nc1scc(-c2ccc3nccnc3c2)c1C(=O)O)c1cc2ccccc2o1` [2-(benzofuran-2-carboxamido)-4-(quinoxalin-6-yl)thiophene-3-carboxylic acid] the value was < 10 µM; for `Cc1ccc(-c2csc(NC(=O)c3ccccc3)c2C(=O)O)o1` [2-benzamido-4-(5-methylfuran-2-yl)thiophene-3-carboxylic acid], < 10 µM.
Still for that read-out and setting: for `Cc1cc(-c2csc(NC(=O)c3cccc(F)c3)c2C(=O)O)n(C)n1` [4-(1,3-dimethyl-1H-pyrazol-5-yl)-2-(3-fluorobenzamido)thiophene-3-carboxylic acid] the value was < 10 µM; for `Cc1cc(-c2csc(NC(=O)c3snnc3C)c2C(=O)O)n(C)n1` [4-(1,3-dimethyl-1H-pyrazol-5-yl)-2-(4-methyl-1,2,3-thiadiazole-5-carboxamido)thiophene-3-carboxylic acid], < 10 µM.
Still for that read-out and setting: for `Cn1cnc(C(=O)Nc2scc(-c3cnn(-c4ccc(Cl)cc4)c3)c2C(=O)O)c1` [4-(1-(4-chlorophenyl)-1H-pyrazol-4-yl)-2-(1-methyl-1H-imidazole-4-carboxamido)thiophene-3-carboxylic acid] the value was < 10 µM.
With `Cc1nnsc1C(=O)Nc1scc(-c2cnn(-c3ccc(Cl)cc3)c2)c1C(=O)O` [4-(1-(4-chlorophenyl)-1H-pyrazol-4-yl)-2-(4-methyl-1,2,3-thiadiazole-5-carboxamido)thiophene-3-carboxylic acid], the IC50 in the assay with JR251 or RBL cells was < 10 µM.
As to `O=C(Nc1scc(-c2cnn(-c3ccc(Cl)cc3)c2)c1C(=O)O)c1cnccn1` [4-(1-(4-chlorophenyl)-1H-pyrazol-4-yl)-2-(pyrazine-2-carboxamido)thiophene-3-carboxylic acid], the IC50 in the assay with JR251 or RBL cells was < 10 µM.
Same read-out and setting: for `O=C(Nc1scc(-c2cnn(-c3ccc(Cl)cc3)c2)c1C(=O)O)c1ccnnc1` [4-(1-(4-chlorophenyl)-1H-pyrazol-4-yl)-2-(pyridazine-4-carboxamido)thiophene-3-carboxylic acid] the value was < 10 µM; for `O=C(Nc1scc(-c2cnn(-c3ccc(Cl)cc3)c2)c1C(=O)O)c1cncnc1` [4-(1-(4-chlorophenyl)-1H-pyrazol-4-yl)-2-(pyrimidine-5-carboxamido)thiophene-3-carboxylic acid], < 10 µM; for `O=C(Nc1scc(-c2nc3ccccc3n2C(F)F)c1C(=O)O)c1cccc(F)c1` [4-(1-(difluoromethyl)-1H-benzo[d]imidazol-2-yl)-2-(3-fluorobenzamido)thiophene-3-carboxylic acid], < 10 µM.
Still for that read-out and setting: for `Cc1nnsc1C(=O)Nc1scc(-c2c(C)nn(-c3ccccc3)c2C)c1C(=O)O` [4-(3,5-dimethyl-1-phenyl-1H-pyrazol-4-yl)-2-(4-methyl-1,2,3-thiadiazole-5-carboxamido)thiophene-3-carboxylic acid] the value was < 10 µM; for `Cc1nc(N2CCCCC2)ncc1-c1csc(NC(=O)c2cnccn2)c1C(=O)O` [4-(4-methyl-2-(piperidin-1-yl)pyrimidin-5-yl)-2-(pyrazine-2-carboxamido)thiophene-3-carboxylic acid], < 10 µM; for `Cc1nc(N2CCCCC2)ncc1-c1csc(NC(=O)c2ccnnc2)c1C(=O)O` [4-(4-methyl-2-(piperidin-1-yl)pyrimidin-5-yl)-2-(pyridazine-4-carboxamido)thiophene-3-carboxylic acid], < 10 µM.
Still for that read-out and setting: for `Cc1nc(N2CCCCC2)ncc1-c1csc(NC(=O)c2cncnc2)c1C(=O)O` [4-(4-methyl-2-(piperidin-1-yl)pyrimidin-5-yl)-2-(pyrimidine-5-carboxamido)thiophene-3-carboxylic acid] the value was < 10 µM.
For `O=C(CCc1cccc(F)c1)Nc1scc(-c2ccc(Cl)nc2)c1C(=O)O` [4-(6-chloropyridin-3-yl)-2-(3-(3-fluorophenyl)propanamido)thiophene-3-carboxylic acid], the 50% inhibitory concentration (IC50) in the assay on JR251 or RBL cells was < 10 µM.
The same measure, in the same setting: for `O=C(Nc1scc(-c2ccc(Cl)nc2)c1C(=O)O)c1cccc(F)c1` [4-(6-chloropyridin-3-yl)-2-(3-fluorobenzamido)thiophene-3-carboxylic acid] the value was < 10 µM; for `O=C(Nc1scc(-c2cc3ccccc3s2)c1C(=O)O)c1cc2ccccc2o1` [4-(benzo[b]thiophen-2-yl)-2-(benzofuran-2-carboxamido)thiophene-3-carboxylic acid], < 10 µM; for `O=C(Nc1scc(-c2ccc3nonc3c2)c1C(=O)O)c1cc2ccccc2o1` [4-(benzo[c][1,2,5]oxadiazol-5-yl)-2-(benzofuran-2-carboxamido)thiophene-3-carboxylic acid], < 10 µM.
Take `O=C(Nc1scc(-c2nc3ccccc3s2)c1C(=O)O)c1cc2ccccc2o1` [4-(benzo[d]thiazol-2-yl)-2-(benzofuran-2-carboxamido)thiophene-3-carboxylic acid]: in the assay with JR251 or RBL cells, the IC50 was < 10 µM.
The same measure, in the same setting: for `O=C(Nc1scc(-c2ccc3scnc3c2)c1C(=O)O)c1cc2ccccc2o1` [4-(benzo[d]thiazol-5-yl)-2-(benzofuran-2-carboxamido)thiophene-3-carboxylic acid] the value was < 10 µM.
Same read-out and setting: for `O=C(Nc1scc(-c2cnccn2)c1C(=O)O)c1ccnnc1` [4-(pyrazin-2-yl)-2-(pyridazine-4-carboxamido)thiophene-3-carboxylic acid] the value was < 10 µM.
The same measure, in the same setting: for `O=C(Nc1scc(-c2cccs2)c1C(=O)O)c1ccccc1Cl` [5′-(2-chlorobenzamido)-2,3′-bithiophene-4′-carboxylic acid] the value was < 10 µM.
For the compound `Cc1ccc(-c2csc(NC(=O)c3cccc(F)c3)c2C(=O)O)s1` [5′-(3-fluorobenzamido)-5-methyl-2,3′-bithiophene-4′-carboxylic acid], the half-maximal inhibitory concentration (IC50) with JR251 or RBL cells is < 10 µM.
Turning to `O=C(Nc1scc(-c2cccs2)c1C(=O)O)c1ccc(F)cc1` [5′-(4-fluorobenzamido)-2,3′-bithiophene-4′-carboxylic acid], in the assay on JR251 or RBL cells, the IC50 is < 10 µM.
On to `O=C(Nc1scc(-c2ccc(Br)s2)c1C(=O)O)c1cc2ccccc2o1` [5′-(benzofuran-2-carboxamido)-5-bromo-2,3′-bithiophene-4′-carboxylic acid], for which, in the assay with JR251 or RBL cells, the IC50 is < 10 µM.
Still for that read-out and setting: for `O=C(Nc1scc(-c2ccc(Cl)s2)c1C(=O)O)c1cc2ccccc2o1` [5′-(benzofuran-2-carboxamido)-5-chloro-2,3′-bithiophene-4′-carboxylic acid] the value was < 10 µM.
Still for that read-out and setting: for `Cc1ccc(-c2csc(NC(=O)c3cc4ccccc4o3)c2C(=O)O)s1` [5′-(benzofuran-2-carboxamido)-5-methyl-2,3′-bithiophene-4′-carboxylic acid] the value was < 10 µM; for `COc1ccc(/C=C/C(=O)Nc2scc(-c3cccs3)c2C(=O)O)cc1OC` [(E)-5′-(3-(3,4-dimethoxyphenyl)acrylamido)-2,3′-bithiophene-4′-carboxylic acid], < 10 µM.
As for `Cc1ccc(-c2csc(NC(=O)c3cccc(F)c3)c2C(=O)O)s1` [A], the IC50 in the assay on RBL-2H3 cells lay in the range of 1 to 10 µM.
Same read-out and setting: for `O=C(Nc1scc(-c2ccc(Cl)s2)c1C(=O)O)c1cc2ccccc2o1` [B] the value was ≤ 0.5 µM; for `Cc1csc(-c2csc(NC(=O)c3cccc(F)c3)c2C(=O)O)n1` [C], 1 to 10 µM; for `O=C(Nc1scc(-c2nc3ccccc3n2C(F)F)c1C(=O)O)c1cc2ccccc2o1` [Compound I], 1 to 10 µM.
On the same count and under the same terms, for `COc1ccc(-c2csc(NC(=O)c3cccc(F)c3)c2C(=O)O)cn1` [D] the value was 1 to 10 µM; for `COc1ccc(-c2csc(NC(=O)c3cc4ccccc4o3)c2C(=O)O)cn1` [E], 1 to 10 µM.
Same read-out and setting: for `O=C(Nc1scc(-c2c[nH]c3ccccc23)c1C(=O)O)c1cccc(F)c1` [H] the value was 1 to 10 µM.
In the case of `O=C(Nc1cc(-c2nc3ccccc3[nH]2)cs1)c1cccc(F)c1` [N-(4-(1H-benzo[d]imidazol-2-yl)thiophen-2-yl)-3-fluorobenzamide], the IC50 with JR251 or RBL cells was < 10 µM.
